Results: patent US20060014750A1, “Pharmaceutical compositions for the treatment of CNS and other disorders” (Pfizer Inc, priority 2001, published 2006)
Structures can show the parent of a compound that is named as a salt.

| SMILES | melting point [°C] |
| --- | --- |
| CCCCCCCCOC(=O)N1CCN2CCC1CC2 (as salt: hydrochloride) | 217.5 |
| CC(C)(C)c1ccc(OC(=O)N2CCN3CCC2CC3)cc1 (as salt: hydrochloride) | 289.7 |
| O=C(Oc1ccc(-n2cncn2)cc1)N1CCN2CCC1CC2 (as salt: hydrochloride) | 253.1 |
| COC(=O)c1ccc(OC(=O)N2CCN3CCC2CC3)cc1 (as salt: hydrochloride) | 237.4 |
| O=C(Oc1cccc(F)c1)N1CCN2CCC1CC2 (as salt: hydrochloride) | 228.2 |
| N#Cc1ccc(OC(=O)N2CCN3CCC2CC3)cc1 (as salt: hydrochloride) | 289.8 |
| O=C(Oc1ccccc1Br)N1CCN2CCC1CC2 (as salt: hydrochloride) | 267.2 |
| O=C(Oc1cccc(-c2cccnc2)c1)N1CCN2CCC1CC2 (as salt: hydrochloride) | 210.2 |
| O=C(Oc1cccc(Oc2ccccc2)c1)N1CCN2CCC1CC2 (as salt: hydrochloride) | 204.8 |
| O=C(Oc1ccc([N+](=O)[O-])cc1)N1CCN2CCC1CC2 (as salt: hydrochloride) | 267.5 |
| O=C(Oc1ccc2cc(Br)ccc2c1)N1CCN2CCC1CC2 | 174.2 |
| Cc1cccc(OC(=O)N2CCN3CCC2CC3)c1 (as salt: hydrochloride) | 249.2 |
| O=C(Oc1ccc(C(F)(F)F)cc1)N1CCN2CCC1CC2 (as salt: hydrochloride) | 260.7 |
| CC(C)(C)c1cccc(OC(=O)N2CCN3CCC2CC3)c1 (as salt: hydrochloride) | 283.4 |
| O=C(Oc1ccc(OCc2ccccc2)cc1)N1CCN2CCC1CC2 (as salt: hydrochloride) | 278.5 |
| CCCOC(=O)N1CCN2CCC1CC2 (as salt: hydrochloride) | 242 |
| O=C(Oc1ccc(Cl)cc1)N1CCN2CCC1CC2 (as salt: hydrochloride) | 257.5 |
| O=C(Oc1ccc(-n2ccnc2)cc1)N1CCN2CCC1CC2 (as salt: hydrochloride) | > 300 |
| O=C(Oc1ccc(C2CCCCC2)cc1)N1CCN2CCC1CC2 (as salt: hydrochloride) | 294.1 |
| O=C(Oc1ccc(I)cc1)N1CCN2CCC1CC2 (as salt: hydrochloride) | 280.2 |
| CSc1ccc(OC(=O)N2CCN3CCC2CC3)cc1 (as salt: hydrochloride) | 235.2 |
| O=C(Nc1ccc(Br)cc1)N1CCN2CCC1CC2 (as salt: HCl) | 228 to 231 |
| O=C(Oc1ccc(F)cc1)N1CCN2CCC1CC2 (as salt: hydrochloride) | 276.8 |
| O=C(Oc1ccccc1)N1CCN2CCC1CC2 | 254.8 |
| O=C(Oc1cccc([N+](=O)[O-])c1)N1CCN2CCC1CC2 (as salt: hydrochloride) | 205.1 |
| Cc1ccc(OC(=O)N2CCN3CCC2CC3)cc1C (as salt: hydrochloride) | 246 |
| CC(=O)N1CCN(c2ccc(OC(=O)N3CCN4CCC3CC4)cc2)CC1 (as salt: hydrochloride) | 166.6 |
| O=C(Oc1ccccc1-c1nc2ccccc2o1)N1CCN2CCC1CC2 (as salt: hydrochloride) | 259.9 |

| SMILES | melting point [°C] |
| --- | --- |
| O=C(Oc1cccc(C(F)(F)F)c1)N1CCN2CCC1CC2 (as salt: hydrochloride) | 229.3 |
| N#Cc1ccc(-c2ccc(OC(=O)N3CCN4CCC3CC4)cc2)cc1 (as salt: hydrochloride) | > 300 |
| O=C(Oc1ccc2ccccc2c1)N1CCN2CCC1CC2 (as salt: hydrochloride) | 255.5 |
| Cc1cc(OC(=O)N2CCN3CCC2CC3)ccc1Br (as salt: hydrochloride) | 212.5 |
| CC(C)COC(=O)N1CCN2CCC1CC2 (as salt: hydrochloride) | 266.5 |
| O=C(Oc1ccc(Cc2ccccc2)cc1)N1CCN2CCC1CC2 (as salt: hydrochloride) | 221.8 |
| O=C(Oc1ccc(Oc2ccccc2)cc1)N1CCN2CCC1CC2 (as salt: hydrochloride) | 238 |
| O=C(Oc1cccc(Br)c1)N1CCN2CCC1CC2 (as salt: hydrochloride) | 224.5 |
| O=C(Oc1cccc(I)c1)N1CCN2CCC1CC2 (as salt: hydrochloride) | 243.8 |
| O=C(c1ccccc1)c1cccc(OC(=O)N2CCN3CCC2CC3)c1 (as salt: hydrochloride) | 241.7 |
| CCOC(=O)N1CCN2CCC1CC2 (as salt: hydrochloride) | 207.7 |
| Cc1cc(OC(=O)N2CCN3CCC2CC3)cc(C)c1Br (as salt: hydrochloride) | 239.5 |
| O=C(Oc1ccc(Cl)c(Cl)c1)N1CCN2CCC1CC2 (as salt: hydrochloride) | 260.2 |
| O=C(Oc1ccccc1Cl)N1CCN2CCC1CC2 (as salt: hydrochloride) | 251.2 |
| O=C(Oc1ccccc1C(F)(F)F)N1CCN2CCC1CC2 (as salt: hydrochloride) | 228.7 |
| O=C(Oc1ccc(-c2ccc(Br)cc2)cc1)N1CCN2CCC1CC2 (as salt: hydrochloride) | > 300 |
| S=C(Oc1ccccc1)N1CCN2CCC1CC2 (as salt: hydrochloride) | 272.2 |
| O=C(Oc1ccccc1Cc1ccccc1)N1CCN2CCC1CC2 (as salt: hydrochloride) | 214 |
| COc1ccc(OC(=O)N2CCN3CCC2CC3)cc1 (as salt: hydrochloride) | 269.7 |
| O=C(Oc1ccccc1I)N1CCN2CCC1CC2 (as salt: hydrochloride) | 254 |
| COc1cccc(OC(=O)N2CCN3CCC2CC3)c1 (as salt: hydrochloride) | 204.3 |
| O=C(Oc1ccccc1-c1nc2ccccc2s1)N1CCN2CCC1CC2 (as salt: hydrochloride) | 247.6 |
| COC(=O)N1CCN2CCC1CC2 (as salt: hydrochloride) | 198.7 |
| O=C(OCc1ccccc1)N1CCN2CCC1CC2 (as salt: hydrochloride) | 235.6 |
| O=C(Oc1ccc(C2CCc3ccccc32)cc1)N1CCN2CCC1CC2 (stereo not shown) (as salt: hydrochloride) | 168.7 |
| O=C(Oc1ccccc1[N+](=O)[O-])N1CCN2CCC1CC2 (as salt: hydrochloride) | 260.4 |
| O=C(Oc1ccc(Br)c(Cl)c1)N1CCN2CCC1CC2 (as salt: hydrochloride) | 234.7 |
